≈ marks a conversion by molar mass, not a printed value. Like-named read-outs stand apart in the source and are kept apart here.
Legend:
in vivo = settings: mouse, po
Description: Mammalian toxicity was determined against Swiss white mice. The test compound was applied orally using corn oil as the carrier.

[1] = test system: house flies, Musca domestica; experiment: insecticidal activity against house flies, topical application, mortality at 24 h; assay type: in vivo; settings: read-out: House flies LD50
Description: (§1) Representative compounds of the N-arylthio- and N-alkylthiosulfinylcarbamate esters of the invention were tested for insecticidal activity against two insect species, house flies, Musca domestica, and mosquito larvae, Culex pipiens. Stock 1% concentrated solutions of each of the test compounds were made in acetone, and such solutions diluted with acetone to a concentration of 0.001-0.1%. House flies were treated topically on the notum by 1 μl of each of the diluted acetone solutions and percent mortality was counted 24 hours after application. Insects were held at a constant temperature of 60° F. Larvicidal activity was determined by applying 1 ml of the acetone solution in 100 ml of water containing 20 3rd instar mosquito larvae. Results are presented as LD50 in μg/g for house flies and LC50 in ppm for mosquito larvae.

[2] = test system: mosquito larvae, Culex pipiens; experiment: larvicidal activity against mosquito larvae; assay type: in vivo; settings: 3rd instar mosquito larvae, 1 ml acetone solution in 100 ml water
Description: as §1

[3] = house flies, topical on notum, 1 μl acetone solution, 24 hours

| SMILES | LD50 (in vivo) [mg/kg] | LD50 ([1]; topical, 24 h) [mg/kg] | LC50 [2] [µg/mL] | LD50 [1, 3] [mg/kg] |
| --- | --- | --- | --- | --- |
| Cc1cc(C(C)(C)C)ccc1S[S+]([O-])N(C)C(=O)Oc1cccc2c1OC(C)(C)C2 (centres unmarked) [Example V, 2,3-dihydro-2,2-dimethylbenzofuranyl-7 (methyl)(2-methyl-4-t-butylphenylthiosulfinyl)carbamate] | 70 | 8.8 | – | – |
| CCCCS[S+]([O-])N(C)C(=O)Oc1cccc2c1OC(C)(C)C2 (centres unmarked) [Example I, 2,3-dihydro-2,2-dimethylbenzofuranyl-7 (methyl)(n-butylthiosulfinyl)carbamate] | 45 | 16.5 | – | – |
| CCCCS[S+]([O-])N(C)C(=O)Oc1ccccc1OC(C)C (centres unmarked) [Example VI, 2-isopropoxyphenyl (methyl)(n-butylthiosulfinyl)carbamate] | 1050 | 31 | – | – |
| CN(C(=O)Oc1cccc2c1OC(C)(C)C2)[S+]([O-])SC(C)(C)C (centres unmarked) [II, 2,3-dihydro-2,2-dimethylbenzofuranyl-7 (methyl)(t-butylthiosulfinyl)carbamate] | 70 | 9 | 0.01 (≈ 0.028 µM) | – |
| CNC(=O)Oc1cccc2c1OC(C)(C)C2 [carbofuran, 2,3-dihydro-2,2-dimethyl-7-benzofuranyl methylcarbamate, reference compound] | 2 to 8 | ~6.5 | – | – |
| CC(C)c1cccc(OC(=O)N(C)[S+]([O-])SC(C)(C)C)c1 (centres unmarked) [Example X, 3-isopropylphenyl (methyl)(t-butylthiosulfinyl)carbamate] | 250 | 75 | – | – |
| CCCCCCCCCCCCS[S+]([O-])N(C)C(=O)ON=CC(C)(C)SC (centres unmarked) [XII, 2-methyl-2-(methylthio)propionaldehyde O-[(methyl)(dodecylthiosulfinyl)carbamoyl]oxime] | – | – | – | 12 |
| Cc1cc(C(C)(C)C)ccc1S[S+]([O-])N(C)C(=O)Oc1cccc(C(C)C)c1 (centres unmarked) [XI, 3-isopropylphenyl (methyl)(2-methyl-4-t-butylphenylthiosulfinyl)carbamate] | 450 | 62.5 | – | – |
| CN(C(=O)Oc1cccc2c1OC(C)(C)C2)[S+]([O-])Sc1ccccc1 (centres unmarked) [III, 2,3-dihydro-2,2-dimethylbenzofuranyl-7 (methyl)(phenylthiosulfinyl)carbamate] | 32 | 7 | 0.05 (≈ 0.132 µM) | – |
| CNC(=O)Oc1ccccc1OC(C)C [2-isopropoxyphenyl methylcarbamate, reference compound] | 60 | – | – | – |
| CN(C(=O)Oc1cccc2ccccc12)[S+]([O-])SC(C)(C)C (centres unmarked) [XIII, 1-naphthyl (methyl)(t-butylthiosulfinyl)carbamate] | > 1000 | 235 | – | – |
| CSC(C)=NOC(=O)N(C)[S+]([O-])SC(C)(C)C (centres unmarked) [VIII, S-methyl N-[N'-methyl-N'-t-butylthiosulfinylcarbamoyloxy]thioacetimidate] | 135 | – | – | 5.5 |
| CN(C(=O)Oc1cccc2ccccc12)[S+]([O-])Sc1ccccc1 (centres unmarked) [XIV, 1-naphthyl (methyl)(phenylthiosulfinyl)carbamate] | > 1000 | 350 | – | – |
| CSC(C)=NOC(=O)N(C)[S+]([O-])Sc1ccccc1 (centres unmarked) [IX, S-methyl N-[N'-methyl-N'-phenylthiosulfinylcarbamoyloxy]thioacetimidate] | 150 | – | – | 6.5 |
| CN(C(=O)Oc1cccc2c1OC(C)(C)C2)[S+]([O-])Sc1ccc(C(C)(C)C)cc1 (centres unmarked) [IV, 2,3-dihydro-2,2-dimethylbenzofuranyl-7 (methyl)(4-t-butylphenylthiosulfinyl)carbamate] | 92 | 11.8 | – | – |
| Cc1cc(C(C)(C)C)ccc1S[S+]([O-])N(C)C(=O)Oc1ccccc1OC(C)C (centres unmarked) [VII, 2-isopropoxyphenyl (methyl)(2-methyl-4-t-butylphenylthiosulfinyl)carbamate] | > 1000 | 27 | – | – |

— patent US4262015A, “N-alkylthio- and N-arylthiosulfinylcarbamate esters” (priority 1979, dated 1981)
